From patent EP4436951B1, “USE OF AURANTIAMIDE ACETATE IN THE TREATMENT OF HYPERTENSION” (Akdeniz Universitesidoner Sermaye Isletme Mudurlugu, priority 2021, dated 2023)

Assays:
[1] = test system: 2K-1C renovascular hypertension; test: Blood pressure by non-invasive tail-cuff method in rats, Goldblatt two kidneys single clip (2K-1C) hypertension model; type: in vivo, Wistar rats
Description: (§1) 5 experimental groups were formed to observe the effects of aurantiamide acetate. Eight […] male Wistar rats were used in each group. The experimental groups created are as follows: • 1. Control group, • 2. SHAM operated (the abdominal cavity is opened and closed by suturing again without any procedure) group, • 3. Aurantiamide acetate (ASP) administered group, • 4. Hypertension (HT) group, • 5. Hypertension+aurantiamide acetate (HT+ASP) administered group.
Hypertension was induced in rats with the Goldblatt model with two kidneys and a single clip (2K-1C). In this model, no operation was performed on the right kidney. The left renal artery was narrowed to 0.22 mm in diameter. In the surgical hypertension model created, renin secretion by the kidney with decreased blood flow led to increased angiotensin II (ANG II) formation and therefore an increase in blood pressure. Sodium excretion by the intact contralateral kidney increases as blood pressure increases (pressure natriuresis), therefore, there was no sodium retention. The rats were anesthetized intraperitoneally before the operation. In the creation of the hypertension model, 90 mg/kg ketamine and 10 mg/kg xylazine were administered intraperitoneally for anesthesia. After anesthesia, the abdomens of the rats were shaved and disinfected with betadine. After disinfection, a midline incision was made and the left kidney was exposed. The left renal artery was isolated from the renal vein, and to induce 2K-1C renovascular hypertension, the circumference of the left renal artery was narrowed gently to 0.22 mm in diameter by 5/0 non-absorbable silicone-coated silk sutures The same procedure was applied to SHAM operated group rats, but the left renal artery was not narrowed. Postoperatively, the peritoneum was sutured with 3/0 absorbable polyglycan suture and the skin layer was sutured with 3/0 non-absorbable silk suture. In the hypertension model, it was waited for 1 week to observe the increase in blood pressure in the hypertension and hypertension+aurantiamide acetate groups, and then blood pressure was measured.
The blood pressures of the animals were measured by the non-invasive tail-cuff method. An occlusive cuff and a piezoelectric impact sensor are placed around the tail. Arterial blood pressure measurements were taken weekly at the same time of day (9:00 am to 12:00 am) to avoid influencing the circadian cycle. Basal blood pressure was measured after delivery of each rat, and blood pressures were recorded regularly every week for 4 weeks until sacrifice. The data acquisition system reported blood pressure (mmHg) as systolic, diastolic, and mean. Each measurement was repeated three times and the average of these three data was taken.
(§2) Aurantiamide acetate was applied to the ASP and HT+ASP groups among the experimental groups. A 100 mM stock was prepared by dissolving 10 mg of aurantiamide acetate in 225 µl of dimethyl sulfoxide (DMSO). For 200 g rat, µl of aurantiamide acetate was administered in 100 µl. Weekly 2.5 mg/kg of aurantiamide acetate was administered intraperitoneally for 4 weeks, 0.5 mg/kg daily, 5 days a week. In total, each rat was given 10 mg/kg of aurantiamide acetate. To eliminate the effects of daily intraperitoneal (i.p.) injection; equal volumes (100 µl) of i.p.DMSO were injected into the rats of control group, SHAM-operated group, and hypertension group. Changes in body weight, blood pressure values, erythrocyte deformability, vascular isolation, and vascular tone were investigated in the experimental groups during the experiment.
Blood pressure values were examined in the experimental groups during the experimental period.

erythrocytes = test: Erythrocyte deformability by ektacytometer (laser diffraction) after 4-week treatment; type: in vivo, Wistar rats; conditions: 37°C
Description: as §1
Aurantiamide acetate was applied to the ASP and HT+ASP groups among the experimental groups. A 100 mM stock was prepared by dissolving 10 mg of aurantiamide acetate in 225 µl of dimethyl sulfoxide (DMSO). For 200 g rat, µl of aurantiamide acetate was administered in 100 µl. Weekly 2.5 mg/kg of aurantiamide acetate was administered intraperitoneally for 4 weeks, 0.5 mg/kg daily, 5 days a week. In total, each rat was given 10 mg/kg of aurantiamide acetate. […]
Erythrocyte deformability was measured in the experimental groups. […] Erythrocyte deformability was evaluated by laser diffraction analysis at various fluid shear forces. […] Thus, the deformability of erythrocytes in response to increased shear forces was determined. […] The erythrocyte deformability was calculated by the system as an elongation index. Elongation index (EI) values were measured between nine shear forces (0.30 - 75.02 Pa). […]

Thoracic Aorta = test: Vascular tone of isolated thoracic aorta rings in organ bath after 4-week treatment (KCl, Phe, ACh and SNP protocols); type: in vivo, Wistar rats
Description: as §1, §2
Vascular isolation was investigated in the experimental groups. The rats in all experimental groups were anesthetized with intraperitoneal ketamine/xylazine (45 mg/kg ketamine and 10 mg/kg xylazine) anesthesia at the end of the 4-week experimental period. After their abdomens were opened, blood was drawn from their abdominal aorta to obtain plasma as well as for use in measuring deformability, and rats were sacrificed by anemia. The thoracic aorta was quickly opened and the thoracic aorta was separated from the other tissues, and removed. As soon as the thoracic aorta tissue is removed, it was taken into a beaker containing Krebs solution (110 mM sodium chloride (NaCl), 5 mM potassium chloride (KCI), 24 mM sodium bicarbonate (NaHCO3), 1 mM mono potassium phosphate (KH2PO4), 1 mM magnesium sulfate heptahydrate (MgSO4.7H2O), 2.5 mM calcium chloride (CaCl2), 10 mM glucose, 0.02 mM ethylenediamine tetraacetic acid (EDTA); pH=7.4). After the tissue was washed with cold Krebs, the dissection stage was started. For the microdissection stage, the thoracic aorta, taken in a petri dish containing cold Krebs, is fixed to the medium, and fat and connective tissue were removed from the artery at the appropriate magnification by using a dissecting microscope. The isolated thoracic aorta is divided into rings of appropriate length. In addition, the rest of the aorta tissue was removed and stored under appropriate conditions for histological and biochemical parameters. Vascular tone was evaluated in the experimental groups. Vascular tone in the experimental groups was analyzed as in the previous work of the project team. After the isolated thoracic aorta is divided into 2 - 2.5 mm long rings; it was gasified with a gas mixture containing 95% O2 - 5% CO2, and it was placed in an organ bath with 10 ml of Krebs solution at 37°C and pH 7.4. After the vessel rings are attached to the isometric transducer by means of a tight rope by hanging them on steel wires, they were washed every 15 minutes under 1 gram relaxation tension and rested for a total of 60 minutes. If the tension changed after each wash, attention was paid to bring it back to 1 gram of tension. After a one-hour relaxation tension (rest period), the vitalization stage, which is the prepulse stage, was applied to the vessels. For this process, after applying Krebs solution containing 20 mM potassium chloride (KCI), phenylephrine (Phe) was added at a concentration of 10^-7 M. This process was repeated 3 times in succession. After the vitalization procedure, the vessels were washed with Krebs solution and an additional 30-minute resting period was started. […]

[2] = Change in body weight during the administration period; type: in vivo, Wistar rats; conditions: between the experimental groups, Day 0 and end of 4th week
Description: as §1
as §2, with “Changes in body weight, blood pressure values, erythrocyte deformability, vascular isolation, and vascular tone were investigated in the experimental groups during the experiment.” left out
The initial weights of the rats were measured in the range of 180-200 g. The weights of each rat before the experiment (Day 0) and after the experiment (at the end of the 4th week) were recorded. […]

[3] = cited from earlier work; for decrease in concentrations: 4 hours after administration; for decrease in concentrations / time to maximum plasma concentration / accumulation in tissues: rats; for decrease in concentrations / accumulation in tissues: oral; for toxic effects: administrations up to 100mg/kg; for time to maximum plasma concentration: oral administration of Portulaca oleracea L extracts
[4] = aurantiamide acetate group (no hypertension) vs control and SHAM, p>0.05

Compound: CC(=O)OC[C@H](Cc1ccccc1)NC(=O)[C@H](Cc1ccccc1)NC(=O)c1ccccc1 [aurantiamide acetate]
- mean arterial blood pressure ([1]; ASP group (no hypertension), second week, compared with control and SHAM operated groups, p<0.05, 0.5 mg/kg daily i.p., 5 days a week): significantly lower
- mean arterial blood pressure ([1]; ASP group (no hypertension), third week, compared with control group, p<0.05, 0.5 mg/kg daily i.p., 5 days a week): significantly lower
- mean arterial blood pressure ([1]; HT+ASP group, last week (week 4), compared to HT group, p<0.001): significant decrease
- mean arterial blood pressure ([1]; HT+ASP group, second week, compared to HT group, p<0.001, 0.5 mg/kg daily i.p., 5 days a week): significant decrease
- mean arterial blood pressure ([1]; HT+ASP group, second week, compared with control, SHAM and ASP groups, p<0.001): significantly higher
- mean arterial blood pressure ([1]; HT+ASP group, third week, compared to HT group, p<0.001): significant decrease
- mean arterial blood pressure ([1]; HT+ASP group, third week, compared with ASP group only, p<0.001): significantly higher
- mean arterial blood pressure ([1]; HT+ASP group, week 4, no difference from control, SHAM and ASP groups (p>0.05)): reduced to basal levels
- mean arterial blood pressure ([1]; within ASP group according to the weeks, p>0.05): did not show a significant difference
- erythrocyte deformability, Elmax values (erythrocytes; [4]): no difference
- erythrocyte deformability (erythrocytes; hypertension + aurantiamide acetate group compared to hypertension group, p<0.01): significant increase
- ACh-mediated relaxation response (endothelium-dependent) (Thoracic Aorta; [4]): no difference
- Phe-mediated contractile response (Thoracic Aorta; [4]): no differences
- SNP-mediated relaxation response (endothelium-independent) (Thoracic Aorta; [4]): no statistical difference
- KCl-mediated contractile response (Thoracic Aorta; aurantiamide acetate group (no hypertension) vs control, SHAM and hypertension groups, 20, 40 and 80 mM KCl, p>0.05): no differences
- Phe-mediated contractile response (Thoracic Aorta; hypertension+aurantiamide acetate group compared to hypertension group, p<0.05 and p<0.001): significantly reduced
- SNP-mediated relaxation response (endothelium-independent) (Thoracic Aorta; hypertension+aurantiamide acetate group compared to hypertension group, p>0.05): no difference
- KCl-mediated contractile response (Thoracic Aorta; hypertension+aurantiamide acetate group compared to the other groups, increasing KCl concentrations, p<0.001): significantly lower
- ACh-mediated relaxation response (endothelium-dependent) (Thoracic Aorta; hypertension+aurantiamide acetate group vs hypertension group, p<0.05 and p<0.01): improvement
- body weights before and after [2]: no significant difference
- decrease in concentrations [3]: approximately 90%
- toxic effects [3]: No toxic effects
- time to maximum plasma concentration [3]: approximately 12 minutes
- accumulation in tissues [3]: no long-term accumulation

Compound: O=C(N[C@@H](Cc1ccccc1)C(=O)N[C@H](CO)Cc1ccccc1)c1ccccc1 [aurantiamide]
- decrease in concentrations [3]: approximately 90%
- toxic effects [3]: No toxic effects
- time to maximum plasma concentration [3]: approximately 12 minutes
- accumulation in tissues [3]: no long-term accumulation
